Experimental data from the NIST ThermoML archive (doi:10.1021/je400463n).

Experiment: mn = molality of the nth substance listed, in mol/kg
Conditions: 100 kPa, Liquid, Pycnometric method

CCCCCCCCCCCC[N+](C)(CCO)CCO.[Br-] [N,N-bis(2-hydroxyethyl)-N-methyldodecan-1-aminium bromide] + O
mass density [kg/m3]
Conditions | 293.15 K | 298.15 K | 303.15 K | 308.15 K | 313.15 K | 318.15 K
m1 = 0.00497 | 998.465 | 997.294 | 995.89 | 994.266 | 992.443 | 990.43
m1 = 0.00607 | 998.521 | 997.349 | 995.942 | 994.317 | 992.492 | 990.478
m1 = 0.00698 | 998.568 | 997.394 | 995.986 | 994.359 | 992.533 | 990.518
m1 = 0.00805 | 998.622 | 997.446 | 996.036 | 994.408 | 992.58 | 990.564
m1 = 0.00909 | 998.675 | 997.498 | 996.086 | 994.456 | 992.626 | 990.609
m1 = 0.01002 | 998.722 | 997.544 | 996.13 | 994.499 | 992.667 | 990.649
m1 = 0.01109 | 998.774 | 997.597 | 996.18 | 994.548 | 992.714 | 990.695
m1 = 0.01202 | 998.818 | 997.641 | 996.222 | 994.59 | 992.755 | 990.735
m1 = 0.01306 | 998.867 | 997.686 | 996.268 | 994.637 | 992.801 | 990.78
m1 = 0.01414 | 998.915 | 997.734 | 996.315 | 994.681 | 992.847 | 990.825
m1 = 0.01505 | 998.953 | 997.771 | 996.353 | 994.719 | 992.884 | 990.862
m1 = 0.01609 | 998.993 | 997.811 | 996.394 | 994.756 | 992.923 | 990.9
m1 = 0.01815 | 999.08 | 997.897 | 996.476 | 994.837 | 993.001 | 990.98
m1 = 0.02008 | 999.16 | 997.976 | 996.554 | 994.913 | 993.076 | 991.051
m1 = 0.02518 | 999.367 | 998.178 | 996.752 | 995.11 | 993.267 | 991.242
m1 = 0.03023 | 999.571 | 998.38 | 996.95 | 995.305 | 993.46 | 991.431
m1 = 0.03525 | 999.778 | 998.58 | 997.146 | 995.497 | 993.649 | 991.62
m1 = 0.04028 | 999.983 | 998.782 | 997.344 | 995.692 | 993.84 | 991.807
m1 = 0.04512 | 1000.19 | 998.981 | 997.539 | 995.884 | 994.027 | 991.991
m1 = 0.05025 | 1000.4 | 999.187 | 997.74 | 996.082 | 994.223 | 992.184

CCCCCCCCCCCC[N+](C)(C)CCO.[Br-] [dodecyl(2-hydroxyethyl)dimethylammonium bromide] + O
mass density [kg/m3]
Conditions | 293.15 K | 298.15 K | 303.15 K | 308.15 K | 313.15 K | 318.15 K
m1 = 0.00798 | 998.5 | 997.328 | 995.92 | 994.291 | 992.462 | 990.446
m1 = 0.009 | 998.537 | 997.364 | 995.954 | 994.324 | 992.494 | 990.476
m1 = 0.01003 | 998.574 | 997.4 | 995.989 | 994.356 | 992.525 | 990.506
m1 = 0.01099 | 998.61 | 997.434 | 996.02 | 994.387 | 992.554 | 990.534
m1 = 0.01195 | 998.646 | 997.468 | 996.053 | 994.418 | 992.584 | 990.562
m1 = 0.013 | 998.684 | 997.503 | 996.087 | 994.451 | 992.616 | 990.593
m1 = 0.01395 | 998.716 | 997.536 | 996.117 | 994.481 | 992.644 | 990.621
m1 = 0.01498 | 998.747 | 997.566 | 996.147 | 994.511 | 992.676 | 990.65
m1 = 0.01595 | 998.774 | 997.591 | 996.174 | 994.537 | 992.701 | 990.679
m1 = 0.01793 | 998.831 | 997.647 | 996.226 | 994.588 | 992.75 | 990.727
m1 = 0.01991 | 998.886 | 997.7 | 996.278 | 994.637 | 992.8 | 990.776
m1 = 0.02489 | 999.025 | 997.835 | 996.408 | 994.766 | 992.92 | 990.893
m1 = 0.02994 | 999.159 | 997.963 | 996.535 | 994.888 | 993.043 | 991.013
m1 = 0.03493 | 999.299 | 998.101 | 996.667 | 995.018 | 993.17 | 991.136
m1 = 0.0399 | 999.439 | 998.235 | 996.795 | 995.142 | 993.291 | 991.254
m1 = 0.04493 | 999.582 | 998.372 | 996.93 | 995.274 | 993.419 | 991.378
m1 = 0.04982 | 999.714 | 998.5 | 997.055 | 995.395 | 993.537 | 991.49
m1 = 0.05488 | 999.856 | 998.637 | 997.186 | 995.52 | 993.66 | 991.613

CCCCCCCCCCCC[N+](C)(C)C.[Br-] [dodecyltrimethylammonium bromide] + O
mass density [kg/m3]
Conditions | 293.15 K | 298.15 K | 303.15 K | 308.15 K | 313.15 K | 318.15 K
m1 = 0.00608 | 998.345 | 997.176 | 995.77 | 994.144 | 992.319 | 990.306
m1 = 0.00707 | 998.368 | 997.197 | 995.79 | 994.162 | 992.336 | 990.321
m1 = 0.00796 | 998.388 | 997.216 | 995.807 | 994.178 | 992.35 | 990.334
m1 = 0.00897 | 998.411 | 997.237 | 995.827 | 994.196 | 992.367 | 990.349
m1 = 0.00999 | 998.434 | 997.259 | 995.847 | 994.214 | 992.383 | 990.364
m1 = 0.01096 | 998.456 | 997.28 | 995.866 | 994.232 | 992.399 | 990.379
m1 = 0.01199 | 998.48 | 997.302 | 995.886 | 994.25 | 992.416 | 990.394
m1 = 0.01299 | 998.503 | 997.324 | 995.905 | 994.268 | 992.432 | 990.409
m1 = 0.01398 | 998.524 | 997.343 | 995.923 | 994.286 | 992.448 | 990.424
m1 = 0.01503 | 998.543 | 997.363 | 995.942 | 994.304 | 992.466 | 990.44
m1 = 0.01596 | 998.556 | 997.376 | 995.956 | 994.32 | 992.48 | 990.454
m1 = 0.01802 | 998.592 | 997.408 | 995.986 | 994.345 | 992.506 | 990.48
m1 = 0.02001 | 998.622 | 997.435 | 996.013 | 994.37 | 992.532 | 990.503
m1 = 0.02494 | 998.695 | 997.505 | 996.077 | 994.432 | 992.587 | 990.558
m1 = 0.02994 | 998.775 | 997.58 | 996.147 | 994.498 | 992.647 | 990.616
m1 = 0.03501 | 998.85 | 997.647 | 996.212 | 994.557 | 992.706 | 990.671
m1 = 0.03995 | 998.918 | 997.712 | 996.271 | 994.615 | 992.76 | 990.721
m1 = 0.04505 | 998.991 | 997.78 | 996.336 | 994.675 | 992.817 | 990.774
m1 = 0.04973 | 999.061 | 997.845 | 996.396 | 994.733 | 992.871 | 990.824
m1 = 0.05498 | 999.145 | 997.923 | 996.47 | 994.801 | 992.935 | 990.883
m1 = 0.06001 | 999.217 | 997.992 | 996.535 | 994.86 | 992.993 | 990.938
